Results taken from patent publication US5459152A, “Platelet activating factor antagonists” (Abbott Laboratories, priority 1993, dated 1995).

target: T1, PAF receptor (Oryctolagus cuniculus, UniProt G1TEI7); test: PAF receptor binding assay ([3H]C18-PAF, rabbit platelet membranes); conditions: inhibition of specific binding of 0.6 nM [3H]C18-PAF to rabbit platelet membranes, 60 min, room temperature; Ki calculated from IC50 by Cheng and Prusoff; read-out: PAF Receptor Binding Activity K1
T1 construct: platelet membranes where prepared by centrifugation and washing; tissue Pel-Freez (Rogers, AR) (whole rabbit blood); host or cells: rabbit platelet membranes
T1 sequence (G1TEI7 1-342): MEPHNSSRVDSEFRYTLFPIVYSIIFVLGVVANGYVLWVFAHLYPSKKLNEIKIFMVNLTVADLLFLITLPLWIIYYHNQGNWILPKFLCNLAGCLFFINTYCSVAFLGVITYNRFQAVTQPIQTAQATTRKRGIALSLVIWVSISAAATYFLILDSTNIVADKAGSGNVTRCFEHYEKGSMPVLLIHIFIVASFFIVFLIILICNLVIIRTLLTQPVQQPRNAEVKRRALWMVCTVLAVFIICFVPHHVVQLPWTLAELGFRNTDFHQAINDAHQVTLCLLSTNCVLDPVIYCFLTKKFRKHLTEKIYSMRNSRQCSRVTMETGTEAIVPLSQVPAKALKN
Procedure: The ability of representative compounds of the present invention to inhibit PAF activity was determined in an in vitro test using the following method.
Citrated whole rabbit blood was obtained from Pel-Freez (Rogers, AR). Rabbit platelets where prepared by centrifugation and washing. The platelets where lysed by freeze-thawing and sonication; platelet membranes where prepared by centrifugation and washing. Final membrane preparations where stored frozen in 10 mM Tris/5 mM MgCl2 /2 mM EDTA (TME buffer, pH 7.0) with 0.25 M sucrose added for membrane stabilization.
The final volume of the assay was 100 μl. The assay was conducted in Millititre-GV™ (Millipore Corp.) filtration plates; incubation time was for 60 minutes at room temperature (22°-23° C.). "Specific binding" was operationally defined as the arithmetic difference between "total binding" of 0.6 nM [^3 H]C18 -PAF (in the absence of added PAF) and "nonspecific binding" (in the presence of 1 μM PAF). After the prescribed incubation, platelet membranes where filtered under vacuum and washed with 1 millilitre of "binding buffer". The filters was dried and removed. The bound radioactivity was quantitated with a Berthold TLC-Linear Analyzer model LB2842.
Experiments where repeated at least once.

SMILES	Ki [nM]
CN(C)C(=O)n1cc(C(=O)c2ccn3c2CSC3c2cccnc2)c2ccc(-c3cccc(S(N)(=O)=O)c3)cc21 (stereo not shown) [Example 80, 3-(Pyridin-3-yl)-7-[1-N,N-dimethylcarbamoyl-6-(3-aminosulfonylphenyl)indol-3-ylcarbonyl]-1H,3H-pyrrolo[1,2-c]thiazole]	45

same assay, conditions: read-out: PAF Receptor Binding Activity K1

Ki [nM]	SMILES
211	O=C(c1ccn2c1CSC2c1ccc[n+]([O-])c1)c1cn(S(=O)(=O)c2ccccc2)c2cc(-c3ccc(F)cc3)ccc12 (stereo not shown) [Example 73, 3-(1 -Oxide-pyridin-3-yl)-7-[1-phenylsulfonyl-6-(4-fluorophenyl)indol-3-ylcarbonyl]-1H,3-pyrrolo[1,2-c]thiazole]
6.1	NC(=O)n1cc(C(=O)c2ccn3c2CSC3c2cccnc2)c2ccc(-c3ccc(F)cc3)cc21 (stereo not shown) [Example 76, 3-(Pyridin-3-yl)-7-[1-carbamoyl-6-(4-fluorophenyl)indol-3-ylcarbonyl]-1H,3H-pyrrolo[1,2-c]thiazole]
6.9	CN(C)CCN(C)C(=O)n1cc(C(=O)c2ccn3c2CSC3c2cccnc2)c2ccc(-c3ccc(F)cc3)cc21 (stereo not shown) [Example 84, 3-(Pyridin-3-yl)-7-[1-(N-methyl-N-(dimethylaminoethyl))carbamoyl-6-(4-fluorophenyl)indol-3-ylcarbonyl]-1H,3H-pyrrolo[1,2-c]thiazole]
280	CN(C)C(=O)n1cc(C(=O)c2ccn3c2CSC3c2cccnc2)c2ccc(-c3cnc(N)nc3)cc21 (stereo not shown) [Example 89]
20	CN(C)C(=O)n1cc(C(=O)c2ccn3c2CSC3c2cccnc2)c2ccc(-c3ccc(C(=O)NN)cc3)cc21 (stereo not shown) [Example 91, 3-(1-Oxide-pyridin-3-yl)-7-[1-N,N-dimethylcarbamoyl-6-(4-hydrazinylcarbonylphenyl)indol-3-ylcarbonyl]-1H,3H-pyrrolo[1,2-c]thiazole]
19	CCNC(=O)n1cc(C(=O)c2ccn3c2CSC3c2cccnc2)c2ccc(-c3ccc(F)cc3)cc21 (stereo not shown) [Example 99]
0.95	CN(C)C(=O)n1cc(C(=O)c2ccn3c2CSC3c2cccnc2)c2ccc(-c3cccs3)cc21 (stereo not shown) [Example 101, 3-(Pyridin-3-yl)-7-(1-N,N-dimethylcarbamoyl-6-thiophen-2-ylindol-3-ylcarbonyl)-1H,3H-pyrrolo[1,2-c]thiazole]
85	CN(C)C(=O)n1cc(C(=O)c2ccn3c2C[S+]([O-])C3c2ccc[n+]([O-])c2)c2ccc(-c3ccc(F)cc3)cc21 (stereo not shown) [Example 103, 2-Oxide-3-(1-oxide-pyridin-3-yl)-7-[1-N,N-dimethylcarbamoyl-6-(4-fluorophenyl)indole-3-ylcarbonyl]-1H,3H-pyrrolo[1,2-c]thiazole]
2.2	CN(C)C(=O)n1cc(C(=NN)c2ccn3c2CSC3c2cccnc2)c2ccc(-c3ccc(F)cc3)cc21 (stereo not shown) [Example 104]
8	CN(C)C(=O)n1cc(C(=NNC(N)=O)c2ccn3c2CSC3c2cccnc2)c2ccc(-c3ccc(F)cc3)cc21 (stereo not shown) [Example 106, 3-(pyridin-3-yl)-7-[1-N,N-dimethylcarbamoyl-6-(4-fluorophenyl)indol-3-ylcarbonylsemicarbazide]-1H,3H-pyrrolo[1,2-c]thiazole]

Second part, the compound before the results:

SMILES	Ki [nM]
CN(C)C(=O)Cn1cc(C(=O)c2ccn3c2CSC3c2ccc[n+]([O-])c2)c2ccc(-c3ccc(F)cc3)cc21 (stereo not shown) [Example 75, 3-(1-Oxide-pyridin-3-yl)-7-[1-(2-N,N-dimethylcarbamoylmethyl)-6-(4-fluorophenyl)indol-3-ylcarbonyl]-1H,3H-pyrrolo[1,2-c]thiazole]	7.5
NS(=O)(=O)CCn1cc(C(=O)c2ccn3c2CSC3c2ccc[n+]([O-])c2)c2ccc(-c3ccc(F)cc3)cc21 (stereo not shown) [Example 79, 3-(3-Oxide-pyridin-3-yl)-7-[1-(2-aminosulfonylethyl)-6-(4-fluorophenyl)indol-3-ylcarbonyl]-1H,3H-pyrrolo[1,2-c]thiazole]	18
CNC(=O)Cn1cc(C(=O)c2ccn3c2CSC3c2cccnc2)c2ccc(-c3ccc(F)cc3)cc21 (stereo not shown) [Example 81, 3-(Pyridin-3-yl)-7-[1-(2-N-methylcarbamoylmethyl)-6-(4-fluorophenyl)indol-3-ylcarbonyl]-1H,3H-pyrrolo[1,2-c]thiazole]	1.12
ON=C(c1ccn2c1CSC2c1cccnc1)c1c[nH]c2cc(-c3ccc(F)cc3)ccc12 (stereo not shown) [Example 83, 3-(Pyridin-3-yl)-7-[6-(4-fluorophenyl)indol-3-ylcarbonyloxime]-1H,3H-pyrrolo[1,2-c]thiazole]	10.7
NCCn1cc(C(=O)c2ccn3c2CSC3c2ccc[n+]([O-])c2)c2ccc(-c3ccc(F)cc3)cc21 (stereo not shown) [Example 90, 3-(1-Oxide-pyridin-3-yl)-7-[1-(2-aminoethyl)-6-(4-fluorophenyl)indol-3-ylcarbonyl]-1H,3H-pyrrolo[1,2-c]thiazole]	480
CC(=O)OC[n+]1cccc(C2SCc3c(C(=O)c4cn(C(=O)N(C)C)c5cc(-c6ccc(F)cc6)ccc45)ccn32)c1 (stereo not shown) [Example 92, 3-(1-Acetoxymethylpyridin-3-yl)-7-[1-N,N-dimethylcarbamoyl-6-(4-fluorophenyl)indol-3-ylcarbonyl]-1H,3H-pyrrolo[1,2-c]thiazole]	19
CN(CO)C(=O)Cn1cc(C(=O)c2ccn3c2CSC3c2cccnc2)c2ccc(-c3ccc(F)cc3)cc21 (stereo not shown) [Example 93]	0.8
N#CCn1cc(C(=O)c2ccn3c2CSC3c2cccnc2)c2ccc(-c3ccc(F)cc3)cc21 (stereo not shown) [Example 94, 3-(Pyridin-3-yl)-7-[1-cyanomethyl-6-(4-fluorophenyl)indol-3-ylcarbonyl]-1H,3H-pyrrolo[1,2-c]thiazole]	40
NC(=O)Cn1cc(C(=O)c2ccn3c2CSC3c2cccnc2)c2ccc(-c3ccc(F)cc3)cc21 (stereo not shown) [Example 95, 3-(Pyridin-3-yl)-7-[1-carbamoylmethyl-6-(4-fluorophenyl)indol-3-ylcarbonyl]-1H,3H-pyrrolo[1,2-c]thiazole]	10
O=C(c1ccn2c1CSC2c1cccnc1)c1cn(Cc2nnn[nH]2)c2cc(-c3ccc(F)cc3)ccc12 (stereo not shown) [Example 97, 3-(Pyridin-3-yl)-7-[1-(1H-tetrazol-5-ylmethyl)-6-(4-fluorophenyl)indol-3-ylcarbonyl]-1H,3H-pyrrolo[1,2-c]thiazole]	19
O=C(c1ccn2c1CSC2c1cccnc1)c1cn(C(=O)NCCc2c[nH]cn2)c2cc(-c3ccc(F)cc3)ccc12 (stereo not shown) [Example 105, 3-(Pyridin-3-yl)-7-[1-N-(2-(4-imidazolyl)ethyl)carbamoyl-6-(4-fluorophenyl)indol-3-ylcarbonyl]-1H,3H-pyrrolo[1,2-c]thiazole]	4.3
